According to the supplement of paper PMC12420376:

Columns and labels:
[1] = system: KURAMOCHI; assay: drug sensitivity score (DSS2) on cancer cell count; higher = more sensitive; extreme values may be limits of the assay; settings: 72 h
Method in brief: (§1)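 Cancer cell counts came from 10× images (4 fields) of fixed cells immunostained for CK8/18 with Hoechst. The ovarian cancer cells had been grown alone or in 1:1 direct co-culture with lung or skin fibroblasts on 384-well plates pre-spotted acoustically with 528 approved and investigational compounds at 5 concentrations, then treated for 72 h. Breeze was used to derive a drug sensitivity score from logistic fits of the data.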

[2] = system: OVCAR8; assay: as above; settings: 72 h
Method in brief: as §1

[3] = co-cultured fibroblast: BJHTERT
[4] = co-cultured fibroblast: none (monoculture)

SMILES	drug sensitivity score [1, 3]	drug sensitivity score ([1]; co-cultured fibroblast: WI38)	drug sensitivity score [1, 4]	drug sensitivity score [2, 3]	drug sensitivity score ([2]; co-cultured fibroblast: WI38)	drug sensitivity score [2, 4]
CC(O)(CS(=O)(=O)c1ccc(F)cc1)C(=O)Nc1ccc(C#N)c(C(F)(F)F)c1 (configuration not stated) [Bicalutamide]	0 DSS	0 DSS	0 DSS	0.1 DSS	0 DSS	0 DSS
Cn1ncc(Cl)c1-c1cc(C(=O)N[C@H](CN)Cc2ccc(F)c(F)c2)oc1Cl [Uprosertib]	0.5 DSS	4.4 DSS	2 DSS	0.6 DSS	0 DSS	0.1 DSS
CCc1cncnc1N1CCN(Cc2nc3ccc(C(F)(F)F)cc3[nH]2)CC1	1 DSS	0 DSS	2.1 DSS	1.3 DSS	0 DSS	2.4 DSS
Nc1nc(Cl)nc2c1ncn2[C@@H]1O[C@H](CO)[C@@H](O)[C@@H]1F [Clofarabine]	13 DSS	19.7 DSS	10.7 DSS	30.7 DSS	28.7 DSS	27.7 DSS
COc1cc(N2CCC(N3CCN(C)CC3)CC2)ccc1Nc1ncc(Cl)c(Nc2ccccc2P(C)(C)=O)n1 [Brigatinib]	0.1 DSS	0 DSS	0 DSS	4.3 DSS	7.9 DSS	2.2 DSS
CCCc1cc(C)[nH]c(=O)c1CNC(=O)c1cc(-c2ccnc(N3CCN(C)CC3)c2)cc2c1cnn2C(C)C [GSK343]	0 DSS	0 DSS	0 DSS	1 DSS	0 DSS	0 DSS
CNc1nc(-c2ccc3c(N)n[nH]c3c2)cc(N2C[C@@H](C(=O)NC3CCCCC3)CC[C@H]2C)n1	3.2 DSS	3.1 DSS	6.5 DSS	1.3 DSS	0.1 DSS	2.8 DSS
CC(=O)[C@]1(O)Cc2c(O)c3c(c(O)c2[C@@H](O[C@H]2C[C@H](N)[C@H](O)[C@H](C)O2)C1)C(=O)c1ccccc1C3=O [Idarubicin]	14.5 DSS	14.4 DSS	27.8 DSS	17.6 DSS	19.3 DSS	22.1 DSS
COC(=O)c1ccc2c(c1)[nH]c1ncnc(NCCCN3CCCCC3)c12 [UM729]	1.1 DSS	0 DSS	4.1 DSS	6.9 DSS	1.1 DSS	3.5 DSS
C[C@@H]1CN(Cc2ccc(F)cc2)[C@@H](C)CN1C(=O)c1cc2c(C(=O)C(=O)N(C)C)cn(C)c2cc1Cl [Talmapimod]	1.2 DSS	0 DSS	0 DSS	2.8 DSS	0 DSS	1.4 DSS
CC(C)C(=O)Nc1ccc([N+](=O)[O-])c(C(F)(F)F)c1 [Flutamide]	0 DSS	1.3 DSS	0 DSS	0 DSS	0 DSS	0 DSS
COc1cccc2c1C(=O)c1c(O)c3c(c(O)c1C2=O)C[C@@](O)(C(=O)CO)C[C@@H]3O[C@H]1C[C@H](N)[C@H](O)[C@H](C)O1 [Doxorubicin]	10.7 DSS	12.7 DSS	25.1 DSS	12.5 DSS	12.3 DSS	12.1 DSS
Cn1cc(-c2ccc(F)c(C(F)(F)F)c2)nc1C1CCN(c2ncnc3[nH]ncc23)CC1	1 DSS	0 DSS	0 DSS	0 DSS	0 DSS	0.6 DSS
Cn1cc(CNCC2CCN(c3ncc(C(=O)NO)cn3)CC2)c2ccccc21 [Quisinostat]	15 DSS	17 DSS	18.9 DSS	22.6 DSS	15.3 DSS	22.4 DSS
COc1cc2nccc(Oc3ccc(NC(=O)Nc4cc(C)on4)c(Cl)c3)c2cc1OC [Tivozanib]	5.7 DSS	3.8 DSS	0.4 DSS	2.8 DSS	8.9 DSS	4.9 DSS
O=c1sn(-c2cccc3ccccc23)c(=O)n1Cc1ccccc1 [Tideglusib]	0 DSS	0 DSS	0 DSS	0.4 DSS	1.5 DSS	0 DSS
O[C@H]1CC[C@H](Nc2ncc3nc(Nc4c(F)cc(F)cc4F)n([C@H]4CCOC4)c3n2)CC1 [Tanzisertib]	2 DSS	0 DSS	0.2 DSS	1.4 DSS	0 DSS	1 DSS
O=C(NC1CCNCC1)c1n[nH]cc1NC(=O)c1c(Cl)cccc1Cl [AT7519]	17.3 DSS	18.8 DSS	19.6 DSS	21.6 DSS	17.5 DSS	19.9 DSS
CCN(CC)CCNC(=O)c1c(C)[nH]c(/C=C2\C(=O)Nc3ccc(F)cc32)c1C [Sunitinib]	0 DSS	0 DSS	3.2 DSS	0.7 DSS	0 DSS	0 DSS
CN1CCN(c2ccc(C(=O)Nc3n[nH]c4ccc(Cc5cc(F)cc(F)c5)cc34)c(NC3CCOCC3)c2)CC1 [Entrectinib]	2.1 DSS	0.3 DSS	1.4 DSS	0 DSS	4 DSS	0 DSS
CN1CCc2c(c3ccccc3n2Cc2ccc(C(=O)NO)cc2)C1 [Tubastatin A]	0 DSS	3.3 DSS	4.6 DSS	0 DSS	4.3 DSS	5.2 DSS
Nc1nc(NC2CC2)cc(-c2cccc(Cl)c2Cl)n1 [TH588]	6 DSS	6.7 DSS	6.5 DSS	7.4 DSS	4.5 DSS	3.3 DSS
COc1cc(C)[nH]c(=O)c1CNC(=O)c1c(C)n([C@H](C)C2CCOCC2)c2ccccc12 [CPI-360]	0 DSS	5.4 DSS	0.7 DSS	0 DSS	0 DSS	0 DSS
NC[C@@](O)(c1ccc(Cl)cc1)c1ccc(-c2cn[nH]c2)cc1	0 DSS	4.2 DSS	3 DSS	3.3 DSS	10.7 DSS	5.1 DSS
CC[C@@H](C(=O)[C@@H](C)[C@@H](O)[C@H](C)[C@@H]1O[C@@H]([C@@H](CC)C(=O)O)CC[C@@H]1C)[C@H]1O[C@]2(C=C[C@@H](O)[C@]3(CC[C@@](C)([C@H]4CC[C@](O)(CC)[C@H](C)O4)O3)O2)[C@H](C)C[C@@H]1C [Salinomycin]	23.1 DSS	23.6 DSS	28.5 DSS	22.1 DSS	12.2 DSS	21.1 DSS
FC(F)(F)c1ccc(CNc2ccc(Cc3c[nH]c4ncc(Cl)cc34)cn2)cn1 [Pexidartinib]	0 DSS	1.4 DSS	12.1 DSS	0 DSS	0.1 DSS	0.7 DSS

SMILES	drug sensitivity score [1, 3]	drug sensitivity score ([1]; co-cultured fibroblast: WI38)	drug sensitivity score [1, 4]	drug sensitivity score [2, 3]	drug sensitivity score ([2]; co-cultured fibroblast: WI38)	drug sensitivity score [2, 4]
COc1cc(OC)c(/C=C/S(=O)(=O)Cc2ccc(OC)c(NCC(=O)O)c2)c(OC)c1 [Rigosertib]	24 DSS	24.1 DSS	28.8 DSS	27.7 DSS	28.9 DSS	30.4 DSS
CCn1c(-c2nonc2N)nc2cnc(Oc3cccc(NC(=O)c4ccc(OCCN5CCOCC5)cc4)c3)cc21	4.2 DSS	5.2 DSS	4.2 DSS	10.9 DSS	31.2 DSS	18.4 DSS
Cn1cc(C2=Nc3cc(NC(=O)C(N)C4CCCCC4)cc4c3C2=CNNC4=O)cn1 (configuration not stated)	14.6 DSS	12.1 DSS	21 DSS	16.2 DSS	13 DSS	16.7 DSS
CN[C@@H]1C[C@H]2O[C@@](C)([C@@H]1OC)n1c3ccccc3c3c4c(c5c6ccccc6n2c5c31)C(=O)N[C@H]4O [UCN-01]	17 DSS	17.3 DSS	22.7 DSS	19.6 DSS	14.3 DSS	17.7 DSS
Clc1ccc(Nc2nnc(Cc3ccncc3)c3ccccc23)cc1 [Vatalanib]	0 DSS	0.7 DSS	0 DSS	0.2 DSS	0 DSS	0 DSS
CO[C@@]12[C@H](COC(N)=O)C3=C(C(=O)C(C)=C(N)C3=O)N1C[C@@H]1N[C@@H]12 [Mitomycin C]	0 DSS	0 DSS	12.4 DSS	4.2 DSS	0.8 DSS	3.1 DSS
Clc1ccc(C(c2ccccc2Cl)C(Cl)Cl)cc1 (configuration not stated) [Mitotane]	0 DSS	0 DSS	0 DSS	0 DSS	0 DSS	0 DSS
COc1cc(OC)cc(N(CCNC(C)C)c2ccc3ncc(-c4cnn(C)c4)nc3c2)c1 [Erdafitinib]	0 DSS	0 DSS	0 DSS	0 DSS	0 DSS	0 DSS
Cc1cc(Nc2cc(N3CCN(C)CC3)nc(/C=C/c3ccccc3)n2)n[nH]1 [ENMD-2076]	11.1 DSS	8.4 DSS	3.7 DSS	13.1 DSS	8.6 DSS	10.6 DSS
CN1CCC(CNc2ccc3ncc(-c4cccc(OC(F)(F)F)c4)n3n2)CC1 [SGI-1776]	7.9 DSS	6.1 DSS	7.6 DSS	8.5 DSS	4.5 DSS	5.2 DSS
CCOC(=O)C1=CCCC[C@H]1S(=O)(=O)Nc1ccc(F)cc1Cl [Resatorvid]	0 DSS	0.2 DSS	0 DSS	0 DSS	0 DSS	0 DSS
Clc1ccccc1C(c1ccccc1)(c1ccccc1)n1cccn1 [TRAM-34]	0 DSS	0 DSS	0 DSS	0 DSS	0 DSS	0 DSS
CNC(=O)c1cccc(-c2ccc3c(N4CCOC[C@@H]4C)nc(N4CCOC[C@@H]4C)nc3n2)c1 [Vistusertib]	10.6 DSS	8.3 DSS	7.5 DSS	13.1 DSS	7.6 DSS	16.1 DSS
COC(=O)c1ccc([C@H]2c3[nH]c4ccccc4c3C[C@H](C(=O)OC)N2C(=O)CCl)cc1 [RSL3]	0 DSS	0 DSS	2.5 DSS	0 DSS	0 DSS	0 DSS
Cc1cccc(CC(=O)N2CCc3c2ccc(-c2cn(C)c4ncnc(N)c24)c3F)n1	0.3 DSS	0 DSS	0 DSS	1.4 DSS	0 DSS	0 DSS
COc1cccc2c1C(=O)c1c(O)c3c(c(O)c1C2=O)C[C@@](O)(C(C)=O)C[C@@H]3O[C@H]1C[C@H](N)[C@H](O)[C@H](C)O1 [Daunorubicin]	11.9 DSS	14.6 DSS	13.9 DSS	14.7 DSS	15.9 DSS	15.1 DSS
Cn1nccc1Nc1nccc(-c2ccn([C@H](CO)c3ccc(Cl)c(F)c3)c(=O)c2)n1 [Ravoxertinib]	3.6 DSS	3.2 DSS	3.3 DSS	2.2 DSS	4.3 DSS	4.9 DSS
CNC(=O)c1ccc(-c2cnc3ncc(Cc4ccc5ncccc5c4)n3n2)cc1F [Capmatinib]	0 DSS	0 DSS	0 DSS	0 DSS	0 DSS	0 DSS
C=CC(=O)Nc1cc2c(Nc3ccc(F)c(Cl)c3)ncnc2cc1OCCCN1CCOCC1 [Canertinib]	9.4 DSS	9.2 DSS	24.2 DSS	9.6 DSS	8.3 DSS	9.4 DSS
Cc1[nH]c2ccccc2c1CCNCc1ccc(/C=C/C(=O)NO)cc1 [Panobinostat]	14.8 DSS	19.4 DSS	21.8 DSS	28.1 DSS	20.1 DSS	26.4 DSS
O=C(O)CCCCC(CCSCc1ccccc1)SCc1ccccc1 (configuration not stated) [CPI-613]	0 DSS	0 DSS	0 DSS	0 DSS	1.3 DSS	0 DSS
CC(=O)OC[C@H]1O[C@@H]([S-])[C@H](OC(C)=O)[C@@H](OC(C)=O)[C@@H]1OC(C)=O.CCP(CC)CC.[Au+] [Auranofin]	9.3 DSS	7 DSS	8.1 DSS	12.1 DSS	8.8 DSS	7.3 DSS
CCN(c1cc(-c2ccc(CN3CCOCC3)cc2)cc(C(=O)NCc2c(C)cc(C)[nH]c2=O)c1C)C1CCOCC1 [Tazemetostat]	0 DSS	0 DSS	0 DSS	0 DSS	0 DSS	0 DSS
COc1cc(Nc2ncc(F)c(Nc3ccc4c(n3)NC(=O)C(C)(C)O4)n2)cc(OC)c1OC [Tamatinib]	0.6 DSS	3.7 DSS	6 DSS	0 DSS	4.3 DSS	0.9 DSS
CN[C@@H](C)C(=O)N[C@H](C(=O)N1CCC[C@H]1c1nc(C(=O)c2ccc(F)cc2)cs1)C1CCCCC1 [NVP-LCL161]	4 DSS	1.9 DSS	2.5 DSS	34.7 DSS	27.7 DSS	23.2 DSS
COc1cccc2c1C(=O)c1c(O)c3c(c(O)c1C2=O)C[C@@](O)(/C(CO)=N/NC(=O)CCCCCN1C(=O)C=CC1=O)C[C@@H]3O[C@H]1C[C@H](N)[C@H](O)[C@H](C)O1 [Aldoxorubicin]	13.3 DSS	13.8 DSS	19.1 DSS	12.9 DSS	11.7 DSS	13.1 DSS
